The source of these data is patent publication US5159080A, “Indole compounds, a process for their preparation, and pharmaceutical compositions containing them” (Madaus AG, priority 1988, dated 1992).

Read-outs that look alike come from different tables or passages of the source.

Assay [1] deals with guinea pig right auricles. The experiment in a line: Isolated, spontaneously beating right auricles, chronotropic effect. The conditions noted are these: Cavia porcellus, read-out: Maximum effect in % of initial value, RIGHT AURICLE CHRONOTROPIC; for Emax at 2 µg/mL: 2.0 μg/ml; for Emax at 4 µg/mL: 4.0 μg/ml; for Emax at 10 µg/mL: 10.0 μg/ml; for Emax at 20 µg/mL: 20.0 μg/ml. Here is the method:
(§1) The test process employed is described, inter alia, in: Staff of the Department of Pharmacology, University of Edinburgh (1970): Pharmacological Experiments on Isolated Preparation, Churchill Livingston, Edinburgh, London and New York, page 112.
(§2) Animals having a body weight of about 500 g, were used and were divided into groups of 4 animals each. The compounds to be tested were dissolved in tyrode solution/sodium chloride solution 50:50 v/v and the desired concentration adjusted in the bath liquid. The experiment was carried out in the known manner.

The nature of assay [2]: Change of heart frequency and average blood pressure in narcotized rats (maximum effect over 2 hours). In kind it is in vivo. The conditions noted are these: Rattus norvegicus, iv, maximum effect over 2 h, hemi-tartrate; for change in vivo at 5 mg/kg: 5 mg/kg i.v.; for change in vivo at 10 mg/kg: 10 mg/kg i.v.; for change in vivo at 2 mg/kg: 2 mg/kg i.v.; for change in vivo at 20 mg/kg: 20 mg/kg i.v.; for change in vivo at 1 mg/kg: 1 mg/kg i.v.

The next assay concerns guinea pig left auricles. The experiment in a line: Isolated left auricles stimulated with 1 Hz, inotropic effect. The conditions noted are these: Cavia porcellus, read-out: Maximum effect in % of initial value, LEFT AURICLE INTROPIC; for Emax at 0.5 µg/mL: 0.5 μg/ml; for Emax at 2 µg/mL: 2.0 μg/ml; for Emax at 4 µg/mL: 4.0 μg/ml; for Emax at 10 µg/mL: 10.0 μg/ml; for Emax at 20 µg/mL: 20.0 μg/ml. The procedure:
as §1, §2

The mark [3] stands for this setting: read-out: BLOOD PRESSURE CHANGE AVERAGE PRESSURE (%).
Setting [4] is: read-out: CHANGE OF HEART FREQUENCY (%).

`Cc1ccc2[nH]c3c(c2c1)C[C@@H]1CN(C)CC[C@@H]1CC3=O` (relative stereo) [SI-WG 379]: the Emax at 0.5 µg/mL in assay [1] (0.5 μg/ml) was -14%. Also, in assay [1], the Emax at 2 µg/mL is -35%, the Emax at 4 µg/mL is -46% and the Emax at 10 µg/mL was -81%. Besides, in assay [2] (setting [3]), the change in vivo at 5 mg/kg is -19.2% and the change in vivo at 10 mg/kg is -22%. Also, the change in vivo at 5 mg/kg in assay [2] (setting [4]) is -17.4%. For the same compound, in the assay with guinea pig left auricles, the Emax at 0.5 µg/mL is 8%, the Emax at 2 µg/mL was 24%, the Emax at 4 µg/mL was 24% and the Emax at 10 µg/mL was determined as 23%.

As to `CN1CC[C@@H]2CC(=O)c3[nH]c4ccc(Br)cc4c3C[C@@H]2C1` (relative stereo) [SI-WG 399], the inhibition at 0.5 µg/mL in assay [1] (0.5 μg/ml) was 22%. Besides, in assay [1], the Emax at 2 µg/mL is -43%, the Emax at 4 µg/mL was -66% and the Emax at 10 µg/mL was -83%. Also, in assay [2] (setting [4]), the change in vivo at 5 mg/kg was -6.6% and the change in vivo at 10 mg/kg was -12.1%. In the assay with guinea pig left auricles, the Emax at 2 µg/mL is 25% and the Emax at 4 µg/mL was found to be 13%.

Consider `CN1CC[C@@H]2CC(=O)c3[nH]c4ccc(F)cc4c3C[C@@H]2C1` (relative stereo) [SI-WG 419], for which the Emax at 0.5 µg/mL in assay [1] (0.5 μg/ml) is -18%. Moreover, in assay [1], the Emax at 2 µg/mL was -30%, the Emax at 4 µg/mL was -42% and the Emax at 10 µg/mL was -80%. In assay [2] (setting [3]), the change in vivo at 2 mg/kg is -10.6%, the change in vivo at 5 mg/kg is -21.4% and the change in vivo at 10 mg/kg is -26.7%. Besides, in assay [2] (setting [4]), the change in vivo at 2 mg/kg was -7.5%, the change in vivo at 5 mg/kg was -12.1% and the change in vivo at 10 mg/kg is -22.8%. Moreover, in the assay with guinea pig left auricles, the Emax at 0.5 µg/mL stood at 6%, the Emax at 2 µg/mL was determined as 6%, the Emax at 4 µg/mL is -7% and the Emax at 10 µg/mL was -27%.

As for `O=C1C[C@H]2CCNC[C@H]2Cc2c1[nH]c1ccccc21` (relative stereo) [SI-WG 422], the Emax at 0.5 µg/mL was -6.7% in assay [1] (0.5 μg/ml) and -4.2% with guinea pig left auricles. Further, the Emax at 2 µg/mL is -19.3% in assay [1] and -12.2% with guinea pig left auricles. The Emax at 4 µg/mL is -36.1% in assay [1] and -14.9% with guinea pig left auricles. For the same compound, the change in vivo at 10 mg/kg in assay [2] (setting [4]) was -12.8%. Further, the change in vivo at 20 mg/kg in assay [2] (setting [3]) is 21.8%; in assay [2] (setting [4]), -15.5%.

`COc1ccc2[nH]c3c(c2c1)C[C@@H]1CN(C)CC[C@@H]1CC3=O` (relative stereo) [SI-WG 449]: in assay [1], the Emax at 2 µg/mL was -19%, the Emax at 10 µg/mL was -40% and the Emax at 20 µg/mL is -57%. Also, in assay [2] (setting [3]), the change in vivo at 2 mg/kg is -16%, the change in vivo at 5 mg/kg is -10% and the change in vivo at 10 mg/kg was -22%. For the same compound, in assay [2] (setting [4]), the change in vivo at 5 mg/kg is -12% and the change in vivo at 10 mg/kg was -17%. In addition, in the assay with guinea pig left auricles, the Emax at 2 µg/mL was found to be 16%, the Emax at 10 µg/mL is 23% and the Emax at 20 µg/mL came out at 20%.

Take `CC(C)c1ccc2[nH]c3c(c2c1)C[C@@H]1CN(C)CC[C@@H]1CC3=O` (relative stereo) [SI-WG 454]: in assay [1], the Emax at 2 µg/mL is -26.4%, the Emax at 10 µg/mL was -65.1% and the Emax at 20 µg/mL is -72.7%. Also, in assay [2] (setting [3]), the change in vivo at 1 mg/kg is -4.8%, the change in vivo at 2 mg/kg was -6.8% and the change in vivo at 5 mg/kg is -7.4%. Besides, in assay [2] (setting [4]), the change in vivo at 1 mg/kg is -7.6%, the change in vivo at 2 mg/kg was -9% and the change in vivo at 5 mg/kg was -20.3%. Also, in the assay with guinea pig left auricles, the Emax at 2 µg/mL is -7.9%, the Emax at 10 µg/mL is -11.4% and the Emax at 20 µg/mL was -33.3%.

In the case of `CCCN1CC[C@@H]2CC(=O)c3[nH]c4ccccc4c3C[C@@H]2C1` (relative stereo) [SI-WG 533], in assay [1], the Emax at 2 µg/mL was -15.9%, the Emax at 4 µg/mL is -26% and the Emax at 10 µg/mL is -34.1%. In assay [2] (setting [3]), the change in vivo at 5 mg/kg was -20.1%, the change in vivo at 10 mg/kg was -22.7% and the change in vivo at 20 mg/kg is -37.4%. Also, in assay [2] (setting [4]), the change in vivo at 5 mg/kg was -9.7%, the change in vivo at 10 mg/kg was -17.9% and the change in vivo at 20 mg/kg was -19.8%. Also, in the assay on guinea pig left auricles, the Emax at 2 µg/mL came out at 11.1%, the Emax at 4 µg/mL worked out at 18.1% and the Emax at 10 µg/mL is 17%.

Take `CN1CC[C@@H]2CC(=O)c3[nH]c4cc5c(cc4c3C[C@@H]2C1)OCO5` (relative stereo) [SI-WG 562]: in assay [1], the Emax at 2 µg/mL was -11.3%, the Emax at 4 µg/mL is -15.7% and the Emax at 10 µg/mL was -31.8%. In addition, in assay [2] (setting [3]), the change in vivo at 2 mg/kg is -3.4%, the change in vivo at 5 mg/kg is -9.4% and the change in vivo at 10 mg/kg is -12.4%. In addition, the change in vivo at 10 mg/kg in assay [2] (setting [4]) is -6%. Also, in the assay with guinea pig left auricles, the Emax at 2 µg/mL was -4.1%, the Emax at 4 µg/mL was -6% and the Emax at 10 µg/mL is -7.4%.

For `CN1CC[C@@H]2CC(=O)c3[nH]c4ccc(O)cc4c3C[C@@H]2C1` (relative stereo) [SI-WG 571, 1.3.4.4a,5,7,12, 12a-octahydro-10-hydroxy-2-methyl-2H-pyrido[3',4':4,5] cyclohept [1,2-b] indol-6-one], in assay [1], the Emax at 2 µg/mL is -3.1%, the Emax at 4 µg/mL was -8.4% and the Emax at 10 µg/mL is -9.1%. Besides, in assay [2] (setting [4]), the change in vivo at 2 mg/kg is -1.4% and the change in vivo at 10 mg/kg is -11.6%. For the same compound, the change in vivo at 10 mg/kg in assay [2] (setting [3]) is -14.1%. In the assay on guinea pig left auricles, the Emax at 4 µg/mL is -3.9% and the Emax at 10 µg/mL was -11.4%.

In the case of `CN1CC[C@@H]2CC(=O)c3[nH]c4ccc(C(C)(C)C)cc4c3C[C@@H]2C1` (relative stereo) [SI-WG 578], in assay [1], the Emax at 2 µg/mL is -19.4%, the Emax at 4 µg/mL is -28.1% and the Emax at 10 µg/mL is -52.9%. Also, in assay [2] (setting [4]), the change in vivo at 2 mg/kg is -6.2% and the change in vivo at 5 mg/kg is -10.2%. For the same compound, the change in vivo at 5 mg/kg in assay [2] (setting [3]) stood at 2%. Besides, in the assay with guinea pig left auricles, the Emax at 2 µg/mL is -3.6%, the Emax at 4 µg/mL is -12.1% and the Emax at 10 µg/mL is -10.9%.

As for `COc1cccc2c3c([nH]c12)C(=O)C[C@H]1CCN(C)C[C@H]1C3` (relative stereo) [SI-WG 583], in assay [1], the Emax at 2 µg/mL is -16.1%, the Emax at 4 µg/mL is -23.7% and the Emax at 10 µg/mL is -30.3%. For the same compound, in assay [2] (setting [3]), the change in vivo at 2 mg/kg came to 2.3%, the change in vivo at 5 mg/kg was -11.7% and the change in vivo at 10 mg/kg was -12%. Besides, in assay [2] (setting [4]), the change in vivo at 2 mg/kg is -3.4%, the change in vivo at 5 mg/kg is -10% and the change in vivo at 10 mg/kg is -11.2%. In the assay with guinea pig left auricles, the Emax at 4 µg/mL was -5.1% and the Emax at 10 µg/mL was -14.9%.

On to `CN1CC[C@@H]2CC(=O)c3c(c4ccccc4n3C)C[C@@H]2C1` (relative stereo) [SI-WG 591], for which, in assay [1], the Emax at 2 µg/mL was -20%, the Emax at 4 µg/mL was -31.9% and the Emax at 10 µg/mL is -43.9%. Moreover, in the assay with guinea pig left auricles, the Emax at 2 µg/mL came to 11.8%, the Emax at 4 µg/mL is 12% and the Emax at 10 µg/mL stood at 27.4%.
